From paper PMC10082830, “A tailored tetravalent peptide displays dual functions to inhibit amyloid β production and aggregation” (Communications Biology, 2023)
Bridge positions count the residues as written; N and C are the ends. Square brackets hold non-standard residues; d marks the D form. Peptide text beside a SMILES is read from it. I, II: the chains in the order shown. * marks the point of attachment. Cbz = O=C(OCc1ccccc1)*; Ahx = NCCCCCC(=O)O

Columns and labels:
[1] = test system: γ-cleavage of NotchΔE in 7WD10-NotchΔE cells; test: γ-Secretase assay in cells (NotchΔE cleavage); format: cell-based, Chinese Hamster; conditions: 48 h, cell lysates, western blot with anti-Myc antibody; DAPT 10 µM
Protocol: (§1) 7WD10 cells were treated with vehicle control or LME-tet at the indicated concentrations for 48 h. Cell lysates were analyzed by western blot. b Effect of LME-tet on production of extracellular sAPPα and sAPPβ Schematic showing α- and β-cleavage sites (top). 7WD10 cells were treated as in (a) and sAPPα and sAPPβ in culture medium were analyzed by western blot (bottom left and right panels, respectively). a, b APP and sAPPα were detected using anti-APP antibody 6E10, and sAPPβ was detected using anti-sAPPβ antibody. Data are graphed as the percentage of the control value, showing the mean ± SE; n = 3–4. Significance vs. vehicle was calculated by ANOVA, followed by one-sided Dunnett’s test; *P < 0.05, **P < 0.01, ***P < 0.001. c Effect of LME-tet on β-cleavage of β-galactoside α-2,6- sialyltransferase 1 (St6gal1) and γ-cleavage of NotchΔE. 7WD10-NotchΔE-St6gal1 cells were treated with LME-tet at the indicated concentrations and β-secretase inhibitor II (βi; 10 µM) for 48 h; culture medium was analyzed by western blot using anti-St6gal1 antibody (left panel). 7WD10-NotchΔE cells were treated with LME-tet at the indicated concentrations and γ-secretase inhibitor DAPT (γi; 10 µM) for 48 h; cell lysates were analyzed by western blot using anti-Myc antibody (right panel). […] Aβ33-FLAG (left) and Aβ (right) were measured by western blot using anti-Aβ antibody 82E1. […]

Aβ40 = molecular target: T1, Aβ40 (Homo sapiens, UniProt P05067); test: ELISA binding between Aβ and LME peptides; conditions: Aβ40, n = 4, read-out: apparent Kd
T1 construct: purchased Peptide Institute
T1 sequence (P05067 672-711 limits assumed): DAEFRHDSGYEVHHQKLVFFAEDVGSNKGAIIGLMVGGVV
Protocol: (§2) The indicated amounts of LME-tet (8.3 µM) or LME-mono (33 µM) were applied onto each well of a regular 96-well ELISA plate (Thermo Fisher Scientific) and incubated overnight for 24 h. After blocking, the plate was incubated with various concentrations of Aβ1–28, Aβ40, or Aβ42 (Peptide Institute) for 2 h at room temperature. Bound Aβ was detected using mouse monoclonal anti-human Aβ antibody 82E1 (Immuno-Biological Laboratories Co., Ltd.) and HRP-conjugated horse anti-mouse IgG antibody (Cell Signaling Technology).

Aβ42 = molecular target: T2, Aβ42 (Homo sapiens, UniProt P05067); test: ELISA binding between Aβ and LME peptides; conditions: Aβ42, n = 3, read-out: apparent Kd
T2 construct: purchased Peptide Institute
T2 sequence (P05067 672-713 limits assumed): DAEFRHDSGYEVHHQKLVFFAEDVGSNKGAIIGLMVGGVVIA
Protocol: as §2

7WD10 cells = test: Incorporation of biotinylated tetravalent peptides into 7WD10 cells, confocal microscopy; format: cell-based, Chinese Hamster; conditions: biotinylated peptide 50 µM, 37 °C, 1 h, Alexa Fluor 488-streptavidin
Protocol: Supplementary Fig. 10: Efficient incorporation of […] into cells.
7WD10 cells were cultured at 37° C for 1 h in the presence of biotinylated LME-tet or PME-tet
(50 µM). Biotinylated peptide was detected using Alexa Fluor 488-conjugated streptavidin.
Fluorescence images were obtained using confocal laser scanning microscopy to assess the
incorporation of tetravalent peptides into cells. The scale bars indicate 10 µm.

[2] = test system: β-cleavage of St6gal1 in 7WD10-NotchΔE-St6gal1 cells; test: β-Secretase assay in cells (St6gal1 cleavage); format: cell-based, Chinese Hamster; conditions: 48 h, culture medium, western blot; β-secretase inhibitor II 10 µM
Protocol: as §1

## C[C@H](NC(=O)Cc1cc(F)cc(F)c1)C(=O)N[C@H](C(=O)OC(C)(C)C)c1ccccc1 [DAPT]
[1]
  production of NICD: efficiently inhibits

## CSCC[C@H](NC(=O)[C@H](CCCNC(=N)N)NC(=O)[C@H](CC(C)C)NC(=O)[C@H](CCCCN)NC(=O)[C@@H]1CCCN1)C(=O)N[C@@H](CCCCN)C(=O)N[C@@H](CCC(=O)O)C(=O)NCCCCCC(=O)NCCCC[C@H](NC(=O)CCCCCNC(=O)[C@H](CCC(=O)O)NC(=O)[C@H](CCCCN)NC(=O)[C@H](CCSC)NC(=O)[C@H](CCCNC(=N)N)NC(=O)[C@H](CC(C)C)NC(=O)[C@H](CCCCN)NC(=O)[C@@H]1CCCN1)C(=O)NCCCC[C@H](NC(=O)[C@H](CCCCNC(=O)CCCCCNC(=O)[C@H](CCC(=O)O)NC(=O)[C@H](CCCCN)NC(=O)[C@H](CCSC)NC(=O)[C@H](CCCNC(=N)N)NC(=O)[C@H](CC(C)C)NC(=O)[C@H](CCCCN)NC(=O)[C@@H]1CCCN1)NC(=O)CCCCCNC(=O)[C@H](CCC(=O)O)NC(=O)[C@H](CCCCN)NC(=O)[C@H](CCSC)NC(=O)[C@H](CCCNC(=N)N)NC(=O)[C@H](CC(C)C)NC(=O)[C@H](CCCCN)NC(=O)[C@@H]1CCCN1)C(N)=O [LME-tet] (I: H-PKLRMKE[Ahx]KK-NH2 / II: H-PKLRMKE[Ahx]K / III: H-PKLRMKE[Ahx] / IV: H-PKLRMKE[Ahx]; amide I:9-IV:C, I:10-II:C, II:9-III:C)
Aβ40
  Kd: 2700 nM
Aβ42
  Kd: 200 nM
7WD10 cells
  efficiency of incorporation into cells: much higher efficacy than PME-tet

## CC(C)C[C@@H](C=O)NC(=O)[C@H](CC(C)C)NC(=O)[C@@H](NC(=O)OCc1ccccc1)C(C)C [β-secretase inhibitor II] (Cbz-Val-Leu-Leu-aldehyde)
[2]
  production of extracellular St6gal1 fragment: completely suppressed
